Assay results: patent US8394848B2, “Compounds that modulate intracellular calcium” (Calcimedica, Inc., priority 2008, dated 2013)

tested on: JR251 or RBL cells; experiment: Store-operated calcium entry, either JR251 or RBL cells, or both; format: cell-based
Method: The day prior to performing the assay, RBL-2H3 cells are plated in 50 μL of complete medium in a 384 well plate. Cells are grown at 37° C./6% CO2 overnight and grow to 50-60% confluence by the next day. On the assay day, 1.5 μM Fluo-4-AM dye (Invitrogen) in complete medium is added and incubated for 1 hour at RT. Cells are washed twice in Ca^2+-free HBSS buffer and 35 μL Ca^2+-free HBSS buffer is added to each well. 10 μL of a test compound prepared in a Ca^2+-free HBSS solution at 4.5× of the desired concentration is added to a well and incubated for 5 minutes at RT. 10 μL of thapsigargin prepared in a Ca^2+-free HBSS solution at 5.5× of the desired concentration (5.5 uM) is added to each well and incubated for an additional 25 minutes. The initial baseline fluorescence signal is measured with a FLIPR^384 (Molecular Devices) plate reader. 5 μL of 12× calcium in HBSS (12 mM) is added and changes in cellular fluorescence are measured with the FLIPR^384 plate reader. In each well, the change in the fluorescent signal as a function of time due to calcium entry into the cell is determined by calculating the difference between the fluorescent signal measured 7 seconds after calcium addition and the initial baseline fluorescence signal at time zero (t=0). This parameter is designated Upslope. The IC50 value is calculated as the concentration at which 50% of the Upslope is inhibited.

| Structure (SMILES) | IC50 [µM] |
| --- | --- |
| O=C(Nc1scc(-c2cc(F)c(F)c(F)c2)c1C(=O)O)c1nc2ccccc2o1 [2-(benzo[d]oxazole-2-carboxamido)-4-(3,4,5-trifluorophenyl)thiophene-3-carboxylic acid] | < 10 |
| Cc1ccc(-c2csc(NC(=O)c3nc4ccccc4o3)c2C(=O)O)cc1CO [2-(benzo[d]oxazole-2-carboxamido)-4-(3-(hydroxymethyl)-4-methylphenyl)thiophene-3-carboxylic acid] | < 10 |
| N#Cc1cc(-c2csc(NC(=O)c3nc4ccccc4o3)c2C(=O)O)ccc1F [2-(benzo[d]oxazole-2-carboxamido)-4-(3-cyano-4-fluorophenyl)thiophene-3-carboxylic acid] | < 10 |
| Cc1ccc(-c2csc(NC(=O)c3nc4ccccc4o3)c2C(=O)O)cc1F [2-(benzo[d]oxazole-2-carboxamido)-4-(3-fluoro-4-methylphenyl)thiophene-3-carboxylic acid] | < 10 |
| O=C(Nc1scc(-c2ccc(Br)c(F)c2F)c1C(=O)O)c1nc2ccccc2o1 [2-(benzo[d]oxazole-2-carboxamido)-4-(4-bromo-2,3-difluorophenyl)thiophene-3-carboxylic acid] | < 10 |
| O=C(Nc1scc(-c2ccc(Br)cc2)c1C(=O)O)c1nc2ccccc2o1 [2-(benzo[d]oxazole-2-carboxamido)-4-(4-bromophenyl)thiophene-3-carboxylic acid] | < 10 |
| O=C(Nc1scc(-c2ccc(Cl)c(F)c2F)c1C(=O)O)c1nc2ccccc2o1 [2-(benzo[d]oxazole-2-carboxamido)-4-(4-chloro-2,3-difluorophenyl)thiophene-3-carboxylic acid] | < 10 |
| Cc1cc(-c2csc(NC(=O)c3nc4ccccc4o3)c2C(=O)O)c(F)cc1Cl [2-(benzo[d]oxazole-2-carboxamido)-4-(4-chloro-2-fluoro-5-methylphenyl)thiophene-3-carboxylic acid] | < 10 |
| Cc1cc(Cl)ccc1-c1csc(NC(=O)c2nc3ccccc3o2)c1C(=O)O [2-(benzo[d]oxazole-2-carboxamido)-4-(4-chloro-2-methylphenyl)thiophene-3-carboxylic acid] | < 10 |
| O=C(Nc1scc(-c2cc(F)c(Cl)c(F)c2)c1C(=O)O)c1nc2ccccc2o1 [2-(benzo[d]oxazole-2-carboxamido)-4-(4-chloro-3,5-difluorophenyl)thiophene-3-carboxylic acid] | < 10 |
| O=C(Nc1scc(-c2ccc(Cl)c(C(F)(F)F)c2)c1C(=O)O)c1nc2ccccc2o1 [2-(benzo[d]oxazole-2-carboxamido)-4-(4-chloro-3-(trifluoromethyl)phenyl)thiophene-3-carboxylic acid] | < 10 |
| N#Cc1cc(-c2csc(NC(=O)c3nc4ccccc4o3)c2C(=O)O)ccc1Cl [2-(benzo[d]oxazole-2-carboxamido)-4-(4-chloro-3-cyanophenyl)thiophene-3-carboxylic acid] | < 10 |
| COc1cc(-c2csc(NC(=O)c3nc4ccccc4o3)c2C(=O)O)ccc1Cl [2-(benzo[d]oxazole-2-carboxamido)-4-(4-chloro-3-methoxyphenyl)thiophene-3-carboxylic acid] | < 10 |
| O=C(Nc1scc(-c2ccc(Cl)cc2)c1C(=O)O)c1nc2ccccc2o1 [2-(benzo[d]oxazole-2-carboxamido)-4-(4-chlorophenyl)thiophene-3-carboxylic acid] | < 10 |
| O=C(Nc1scc(-c2ccc(Oc3ccccc3)cc2)c1C(=O)O)c1nc2ccccc2o1 [2-(benzo[d]oxazole-2-carboxamido)-4-(4-phenoxyphenyl)thiophene-3-carboxylic acid] | < 10 |
| Cc1ccc(-c2csc(NC(=O)c3nc4ccccc4s3)c2C(=O)O)c(F)c1 [2-(benzo[d]thiazole-2-carboxamido)-4-(2-fluoro-4-methylphenyl)thiophene-3-carboxylic acid] | < 10 |
| Cc1ccc(-c2csc(NC(=O)c3nc4ccccc4s3)c2C(=O)O)cc1F [2-(benzo[d]thiazole-2-carboxamido)-4-(3-fluoro-4-methylphenyl)thiophene-3-carboxylic acid] | < 10 |
| O=C(Nc1scc(-c2ccc(Br)cc2)c1C(=O)O)c1nc2ccccc2s1 [2-(benzo[d]thiazole-2-carboxamido)-4-(4-bromophenyl)thiophene-3-carboxylic acid] | < 10 |
| O=C(Nc1scc(-c2ccc(Cl)c(F)c2F)c1C(=O)O)c1nc2ccccc2s1 [2-(benzo[d]thiazole-2-carboxamido)-4-(4-chloro-2,3-difluorophenyl)thiophene-3-carboxylic acid] | < 10 |
| O=C(Nc1scc(-c2ccc(Cl)cc2F)c1C(=O)O)c1nc2ccccc2s1 [2-(benzo[d]thiazole-2-carboxamido)-4-(4-chloro-2-fluorophenyl)thiophene-3-carboxylic acid] | < 10 |
| O=C(Nc1scc(-c2cc(F)c(Cl)c(F)c2)c1C(=O)O)c1nc2ccccc2s1 [2-(benzo[d]thiazole-2-carboxamido)-4-(4-chloro-3,5-difluorophenyl)thiophene-3-carboxylic acid] | < 10 |
| O=C(Nc1scc(-c2ccc(Cl)cc2)c1C(=O)O)c1nc2ccccc2s1 [2-(benzo[d]thiazole-2-carboxamido)-4-(4-chlorophenyl)thiophene-3-carboxylic acid] | < 10 |

Now from value to molecule:

| IC50 [µM] | Structure (SMILES) |
| --- | --- |
| < 10 | Cc1cc(C(F)(F)F)ccc1-c1csc(NC(=O)c2nc3ccccc3o2)c1C(=O)O [2-(benzo[d]oxazole-2-carboxamido)-4-(2-methyl-4-(trifluoromethyl)phenyl)thiophene-3-carboxylic acid] |
| < 10 | O=C(Nc1scc(-c2ccc(Cl)c(Cl)c2)c1C(=O)O)c1nc2ccccc2o1 [2-(benzo[d]oxazole-2-carboxamido)-4-(3,4-dichlorophenyl)thiophene-3-carboxylic acid] |
| < 10 | Cc1ccc(-c2csc(NC(=O)c3nc4ccccc4o3)c2C(=O)O)cc1C [2-(benzo[d]oxazole-2-carboxamido)-4-(3,4-dimethylphenyl)thiophene-3-carboxylic acid] |
| < 10 | O=C(Nc1scc(-c2ccc(OC(F)(F)F)cc2)c1C(=O)O)c1nc2ccccc2o1 [2-(benzo[d]oxazole-2-carboxamido)-4-(4-(trifluoromethoxy)phenyl)thiophene-3-carboxylic acid] |
| < 10 | O=C(Nc1scc(-c2ccc(C(F)(F)F)cc2)c1C(=O)O)c1nc2ccccc2o1 [2-(benzo[d]oxazole-2-carboxamido)-4-(4-(trifluoromethyl)phenyl)thiophene-3-carboxylic acid] |
| < 10 | O=C(Nc1scc(-c2ccc(Br)cc2F)c1C(=O)O)c1nc2ccccc2o1 [2-(benzo[d]oxazole-2-carboxamido)-4-(4-bromo-2-fluorophenyl)thiophene-3-carboxylic acid] |
| < 10 | O=C(Nc1scc(-c2cc(F)c(Cl)cc2F)c1C(=O)O)c1nc2ccccc2o1 [2-(benzo[d]oxazole-2-carboxamido)-4-(4-chloro-2,5-difluorophenyl)thiophene-3-carboxylic acid] |
| < 10 | O=C(Nc1scc(-c2ccc(Cl)cc2F)c1C(=O)O)c1nc2ccccc2o1 [2-(benzo[d]oxazole-2-carboxamido)-4-(4-chloro-2-fluorophenyl)thiophene-3-carboxylic acid] |
| < 10 | O=C(Nc1scc(-c2ccc(Cl)c(F)c2)c1C(=O)O)c1nc2ccccc2o1 [2-(benzo[d]oxazole-2-carboxamido)-4-(4-chloro-3-fluorophenyl)thiophene-3-carboxylic acid] |
| < 10 | N#Cc1ccc(-c2csc(NC(=O)c3nc4ccccc4o3)c2C(=O)O)c(F)c1 [2-(benzo[d]oxazole-2-carboxamido)-4-(4-cyano-2-fluorophenyl)thiophene-3-carboxylic acid] |
| < 10 | Cc1cc(C#N)ccc1-c1csc(NC(=O)c2nc3ccccc3o2)c1C(=O)O [2-(benzo[d]oxazole-2-carboxamido)-4-(4-cyano-2-methylphenyl)thiophene-3-carboxylic acid] |
| < 10 | O=Cc1ccc(-c2csc(NC(=O)c3nc4ccccc4o3)c2C(=O)O)cc1 [2-(benzo[d]oxazole-2-carboxamido)-4-(4-formylphenyl)thiophene-3-carboxylic acid] |
| < 10 | O=C(Nc1scc(-c2cc3cccc(O)c3o2)c1C(=O)O)c1nc2ccccc2o1 [2-(benzo[d]oxazole-2-carboxamido)-4-(7-hydroxybenzofuran-2-yl)thiophene-3-carboxylic acid] |
| < 10 | COc1cccc2cc(-c3csc(NC(=O)c4nc5ccccc5o4)c3C(=O)O)oc12 [2-(benzo[d]oxazole-2-carboxamido)-4-(7-methoxybenzofuran-2-yl)thiophene-3-carboxylic acid] |
| < 10 | O=C(Nc1scc(-c2ccc(Cl)cc2)c1C(=O)O)c1ccc2ncoc2c1 [2-(benzo[d]oxazole-6-carboxamido)-4-(4-chlorophenyl)thiophene-3-carboxylic acid] |
| < 10 | Cc1ccc(-c2csc(NC(=O)c3nc4ccccc4s3)c2C(=O)O)c(F)c1F [2-(benzo[d]thiazole-2-carboxamido)-4-(2,3-difluoro-4-methylphenyl)thiophene-3-carboxylic acid] |
| < 10 | O=C(Nc1scc(-c2ccc(Cl)c(F)c2)c1C(=O)O)c1nc2ccccc2s1 [2-(benzo[d]thiazole-2-carboxamido)-4-(4-chloro-3-fluorophenyl)thiophene-3-carboxylic acid] |
